Eight molecules from PubChem BioAssay (NCI) can be followed below.

Some test systems named below: OVCAR-8 ovarian; CCRF-CEM leukemia; IGROV1 ovarian; NCI/ADR-RES ovarian; RXF 393 renal; SNB-19 CNS; MDA-MB-435; RPMI-8226 leukemia; SF-539 CNS; UACC-62 melanoma.
Assay in all cases: NCI-60 cell line screen, 48 h

The structures appear in SMILES notation.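 Five compound concentrations were applied to cells in 96-well plates for 48 hours; endpoints were derived by simple linear interpolation of the resulting dose-response curve. Abbreviation: GI50, concentration required for 50% inhibition of growth. TGI: concentration producing complete growth inhibition.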 Bounds are passed on as bounds.

Regarding `Cc1ncsc1-c1ccc(CNC(=O)[C@@H]2C[C@@H](O)CN2C(=O)[C@@H](NC(=O)C2(C#N)CC2)C(C)(C)C)cc1`, the GI50 with OVCAR-8 ovarian, with CCRF-CEM leukemia, in the test on IGROV1 ovarian, with NCI/ADR-RES ovarian, in the test on RXF 393 renal and with SNB-19 CNS was above 100 µM in each case. Besides, the GI50 is above 100 µM in the test with MDA-MB-435, 62.4 µM with RPMI-8226 leukemia, above 100 µM in the test on SF-539 CNS and 62.6 µM with UACC-62 melanoma. Besides, the TGI in the test on OVCAR-8 ovarian, with CCRF-CEM leukemia, in the test with IGROV1 ovarian, in the test with NCI/ADR-RES ovarian, in the test on RXF 393 renal and in the test with SNB-19 CNS was above 100 µM each time. Also, the TGI in the test on MDA-MB-435, in the test on RPMI-8226 leukemia, with SF-539 CNS and with UACC-62 melanoma was above 100 µM throughout.

Consider `O=C(/C(=C/c1ccc([N+](=O)[O-])cc1)SCc1ccc(F)cc1)c1ccc(Cl)cc1`, for which the GI50 with OVCAR-8 ovarian is 6.6 µM; in the test on CCRF-CEM leukemia, 3.17 µM; in the test with IGROV1 ovarian it was 9.4 µM; in the test with NCI/ADR-RES ovarian, 4.57 µM; in the test on RXF 393 renal it was 15.5 µM; in the test with SNB-19 CNS it was 3.28 µM. Moreover, the GI50 in the test with MDA-MB-435 is 2.78 µM; in the test with RPMI-8226 leukemia, 1.92 µM; with SF-539 CNS, 15.5 µM; in the test on UACC-62 melanoma, 5.4 µM. Also, the TGI with OVCAR-8 ovarian is 96.6 µM; in the test on CCRF-CEM leukemia, above 100 µM; in the test on IGROV1 ovarian it was 38.7 µM; in the test with NCI/ADR-RES ovarian, above 100 µM; in the test with RXF 393 renal, 36.6 µM; with SNB-19 CNS it was 11.6 µM. Moreover, the TGI was 9.49 µM with MDA-MB-435, 6.36 µM with RPMI-8226 leukemia, 33.2 µM in the test with SF-539 CNS and 36.6 µM in the test on UACC-62 melanoma.

On to `CCc1ccc2c(c1)N(CCO)C1=C(C(=O)OC1)C2c1cccc(Cl)c1` (stereo not given), for which the GI50 in the test with OVCAR-8 ovarian is 1.32 µM; in the test with CCRF-CEM leukemia, 0.739 µM; in the test with IGROV1 ovarian it was 3.75 µM; in the test with NCI/ADR-RES ovarian, 0.337 µM; with RXF 393 renal, 0.378 µM; in the test on SNB-19 CNS it was 1.33 µM. Also, the GI50 is 0.195 µM in the test on MDA-MB-435, 3.38 µM in the test on RPMI-8226 leukemia, 0.488 µM in the test with SF-539 CNS and 0.537 µM in the test on UACC-62 melanoma. Also, the TGI in the test on OVCAR-8 ovarian was found to be 26.8 µM; in the test on CCRF-CEM leukemia, 32 µM; in the test on IGROV1 ovarian, 37.6 µM; with NCI/ADR-RES ovarian it was 5.05 µM; with RXF 393 renal, 3.57 µM; in the test with SNB-19 CNS it was 25.1 µM. Also, the TGI in the test with MDA-MB-435 worked out at 0.787 µM; with RPMI-8226 leukemia, 52.6 µM; in the test on SF-539 CNS, 11.4 µM; in the test with UACC-62 melanoma it was 18.5 µM.

Take `O=C(Nc1nc2ccc(F)cc2s1)c1cccnc1Nc1ccc(Cl)cc1`: the GI50 was 6.26 µM in the test on OVCAR-8 ovarian; 1.54 µM in the test on CCRF-CEM leukemia; 2.6 µM with IGROV1 ovarian; 2.36 µM with NCI/ADR-RES ovarian; 33.6 µM with RXF 393 renal; 3.83 µM with SNB-19 CNS. Further, the GI50 in the test with MDA-MB-435 was 3.11 µM; in the test on RPMI-8226 leukemia it was 1.24 µM; in the test with SF-539 CNS, 2.89 µM; in the test with UACC-62 melanoma, 2.47 µM. The TGI with OVCAR-8 ovarian was above 100 µM; in the test with CCRF-CEM leukemia, above 100 µM; in the test on IGROV1 ovarian it was above 34.1 µM; in the test on NCI/ADR-RES ovarian, above 28.1 µM; with RXF 393 renal it was above 100 µM; in the test with SNB-19 CNS, above 100 µM. The TGI in the test on MDA-MB-435 is above 100 µM; in the test on RPMI-8226 leukemia, 7.47 µM; in the test on SF-539 CNS it was above 27.9 µM; in the test on UACC-62 melanoma it was above 100 µM.

Turning to `O=C(NN=C1CCCCC1)c1[nH]c2ccc(F)cc2c1-c1ccccc1`, the GI50 in the test on OVCAR-8 ovarian was 51.4 µM; in the test with CCRF-CEM leukemia, 17.7 µM; with IGROV1 ovarian, 65.9 µM; with NCI/ADR-RES ovarian, 23.7 µM; in the test on RXF 393 renal, 98.5 µM; in the test with SNB-19 CNS, 47.3 µM. Moreover, the GI50 was 35.3 µM in the test with MDA-MB-435, 40.5 µM in the test on RPMI-8226 leukemia, 52 µM with SF-539 CNS and 38.6 µM in the test on UACC-62 melanoma. Also, the TGI was above 100 µM in the test with OVCAR-8 ovarian; above 100 µM in the test with CCRF-CEM leukemia; above 100 µM with IGROV1 ovarian; 86.1 µM in the test on NCI/ADR-RES ovarian; above 100 µM with RXF 393 renal; above 100 µM with SNB-19 CNS. Moreover, the TGI in the test on MDA-MB-435, with RPMI-8226 leukemia, with SF-539 CNS and in the test with UACC-62 melanoma was above 100 µM each time.

Turning to `CC1(C)CCC(C)(C)c2c1ccc(O)c2Cc1c(O)ccc2c1C(C)(C)CCC2(C)C`, the TGI worked out at 4.53 µM in the test with OVCAR-8 ovarian; 5.75 µM in the test on CCRF-CEM leukemia; 3.68 µM with IGROV1 ovarian; 4.43 µM in the test with NCI/ADR-RES ovarian; 3.47 µM in the test with RXF 393 renal; 5.4 µM with SNB-19 CNS. In addition, the TGI with MDA-MB-435 was 3.48 µM; in the test on RPMI-8226 leukemia it was 4.47 µM; in the test on SF-539 CNS, 4.05 µM; in the test on UACC-62 melanoma, 4.33 µM.

`C/C(=C(\c1ccc(OCCN2CCCCCC2)cc1)c1ccc(OC(=O)Cc2ccccc2)cc1)c1ccc(Cl)cc1`: the GI50 was 3.24 µM in the test with OVCAR-8 ovarian; 3.2 µM with CCRF-CEM leukemia; 2.8 µM with IGROV1 ovarian; 2.99 µM with NCI/ADR-RES ovarian; 2.03 µM in the test on RXF 393 renal; 2.96 µM in the test on SNB-19 CNS. The GI50 in the test with MDA-MB-435 was 2.46 µM; in the test on RPMI-8226 leukemia, 1.82 µM; in the test with SF-539 CNS it was 2.36 µM; with UACC-62 melanoma, 2.73 µM. Besides, the TGI was 6.35 µM with OVCAR-8 ovarian; 10.5 µM in the test on CCRF-CEM leukemia; 6.51 µM in the test with IGROV1 ovarian; 6.86 µM with NCI/ADR-RES ovarian; 4.45 µM in the test with RXF 393 renal; 6.41 µM in the test with SNB-19 CNS. Further, the TGI in the test with MDA-MB-435 stood at 4.66 µM; with RPMI-8226 leukemia it was 5.47 µM; in the test with SF-539 CNS, 4.82 µM; in the test with UACC-62 melanoma, 5.2 µM.

With `CSc1ncnc2c1ncn2C1OC(CO)C(O)OC1O` (stereo not given), the TGI was 52.4 µM in the test on OVCAR-8 ovarian; 0.402 µM with CCRF-CEM leukemia; 18.9 µM in the test on IGROV1 ovarian; above 93.1 µM in the test with NCI/ADR-RES ovarian; 38 µM in the test on RXF 393 renal; 51.5 µM in the test on SNB-19 CNS. The TGI with MDA-MB-435 was 23.8 µM; in the test on RPMI-8226 leukemia, 79.5 µM; with SF-539 CNS it was 16.9 µM; with UACC-62 melanoma, 18.5 µM.
